Assay results taken from patent publication US5821353A, “DNA encoding 1,3 beta-D glucan synthase subunits” (Merck & Co., Inc., priority 1996, dated 1998).

Columns and labels:
S. cerevisiae MY2145 = test: MIC, growth inhibition; assay type: cell-based, Saccharomyces cerevisiae; conditions: MY2145
Experimental: (§1) Liquid broth microdilution assay
(§2) To quantitate the sensitivity of a particular strain of S. cerevisiae to a compound such as FK506, L-733,560, or nikkomycin Z, the following procedure was followed:
(§3) Dissolve drug of interest at 4× the desired initial concentration. For L-733,560, a 64 mcg/ml solution in sterile SD is prepared. Aliquot 75 mcL of the drug suspension into column 3. Using a multichannel pipettor, transfer 75 mcL from column 3 into column 4, pipet up and down three times to mix, and then transfer 75 mcL from column 4 into column 5. Repeat the serial dilution until column 12 is reached; after mixing, discard 75 mcL to waste.
(§4) Inoculate each strain in a given row by adding 75 mcL of the inoculum into columns 2 to 12. […] Column 2 serves as the no-drug or 100% growth control. The plate is then incubated overnight at 30° C. without shaking.
(§5) After approximately 24 hours of incubation, gently agitate the plate to resuspend the cells and read the absorbance at 600 nm wavelength. The % control growth for any given well can be calculated by dividing the absorbance value for that well by the value from column 2 in the same row. If this is done for each column, the data can be plotted as "Percent control growth" vs. "Drug concentration". The resulting dose-response curve can be used to compare the drug sensitivities of various strains.
(§6) The data in the following table are the minimum concentration of the various drugs required to inhibit the growth of each the mutants and their parent X2180-1A.

S. cerevisiae X2180-1A = test: MIC, growth inhibition; assay type: cell-based, Saccharomyces cerevisiae; conditions: minimum concentration required to inhibit growth
Experimental: as §1, §2, §3, §4, §5, §6

[1] = system: S. cerevisiae MY2144 (fks 1-3); test: MIC, growth inhibition; assay type: cell-based, Saccharomyces cerevisiae; conditions: MY2144 (fks 1-3)
Experimental: as §1, §2, §3, §4, §5, §6

[2] = biological target: 1,3-beta-D glucan synthase from X2180-1A (Saccharomyces cerevisiae, UniProt P38631); test: 1,3-beta-D glucan synthase assay, membrane preparation; assay type: biochemical; conditions: membranes of X2180-1A
Experimental: (§7) Cell free extracts were prepared from mutant and wild type cells grown to logarithmic phase as previously described (Kang and Cabib, PNAS, 83:5808-5812, 1986). After homogenization with glass beads, the unbroken cells and debris were removed by a low speed centrifugation (1,000×gfor 5 min). The supernatant fluids were centrifuged at 100,000×g for 60 min and the pellets were washed with 2.5 ml (per gram of wet cells) of buffer containing 0.05M potassium phosphate (pH 7.5), 0.5 mM DTT, and 1.0 mM PMSF. The washed pellet was resuspended in the same buffer containing 5% glycerol. This served as the microsomal membranes source containing both chitin and glucan synthase enzymatic activities. The standard 1,3-beta-D glucan synthase reaction was initiated by mixing 35 mcg protein in cocktail I, which included TEK buffer (125 mM Tris chloride, pH 7.5, 31 mM KF, and 1 mM EDTA), 25% PBS, pH 7.0, 3.31 mcM GTP-gamma-S, and 0.25% BSA in a total volume of 69 mcL, with cocktail II, which included 4 units alpha-amylase, 25 mcg UDP-glucose, and 1 microCi UDP-^3 H-glucose, in a total volume of 11 mcL. Following 150 minutes of incubation at 30° C., the incorporation of UDP-^[…] into glucan was measured after precipitation with trichloroacetic acid.
(§8) Crude enzyme preparations associated with cell membranes were tested for glucan and chitin synthesis activities. […]

[3] = system: 1,3-beta-D glucan synthase from MY2145 (fks 1-4); test: as above; assay type: biochemical, Saccharomyces cerevisiae; conditions: membranes of MY2145 (fks 1-4)
Experimental: as §7, §8

[4] = system: 1,3-beta-D glucan synthase from MY2144 (fks 1-3); test: as above; assay type: biochemical, Saccharomyces cerevisiae; conditions: membranes of MY2144 (fks 1-3)
Experimental: as §7, §8

S. cerevisiae R560-1C = test: secondary screen, zone size on agar; assay type: cell-based, Saccharomyces cerevisiae; conditions: 20 ng FK506, 10 mcg CsA, 10 mcg L733,560, 20 mcg aculeacin, 20 mcg papulacandin
Experimental: (§9) For positively identifying glucan synthase inhibitors, screening with strain R560-1C and its parent W303-1A was instituted in a manner identical to that described for calcineurin inhibitors. Complete loss of a zone, or marked reduction in size, on R560-1C versus W303-1A indicates a glucan synthase inhibitor. No zones are seen with calcineurin inhibitors using this pair of strains.
(§10) Each strain is grown at 28°-30° C. in YPAD/10 mM CaCl2 medium with shaking at 220 rpm (to mid or late log phase). The cultures are diluted 1:10 with water, and the OD values of the dilutions are measured at 600 nm (against a blank of YPAD/10 mM CaCl2 similarly diluted 1:10 in water). The OD value is multiplied by 10 to estimate the OD of the culture. Portions (100 ml) of YPAD/10 mM CaCl2 medium containing 1.5% agar, equilibrated at 45° C. in a water bath, are seeded with culture such that the final cell density in the agar would have an OD value of 0.015 (i.e., 3×10^6 cfu/ml; a sample calculation is provided below). The seeded agar is poured into 500 cm^2 Nunc plates. Once the agar plates have solidified, 10 mcL aliquots of samples containing test compounds, such as fermentation extracts, are dissolved in water, 100% methanol or ethanol, or up to 50% DMSO and are placed on each member of the two-plate set in 11 by 8 arrays.
(§11) The plates are incubated for 48 h at 28°-30° C. Diameters of the zones are read to the outermost edge and recorded in mm. The clarity of the zone is reported as clear (no designation), hazy (h), or very hazy (vh). Very hazy zones are best seen by viewing the plate under an elevated light placed between the assay dish and a dark wall.

S. cerevisiae W303-1A = test: secondary screen, zone size on agar; assay type: cell-based, Saccharomyces cerevisiae; conditions: 20 ng FK506, 10 mcg CsA, 10 mcg L733,560, 20 mcg aculeacin, 20 mcg papulacandin
Experimental: as §9, §10, §11

1,3-beta-D glucan synthase from X2180-1A, sequence (P38631 whole entry): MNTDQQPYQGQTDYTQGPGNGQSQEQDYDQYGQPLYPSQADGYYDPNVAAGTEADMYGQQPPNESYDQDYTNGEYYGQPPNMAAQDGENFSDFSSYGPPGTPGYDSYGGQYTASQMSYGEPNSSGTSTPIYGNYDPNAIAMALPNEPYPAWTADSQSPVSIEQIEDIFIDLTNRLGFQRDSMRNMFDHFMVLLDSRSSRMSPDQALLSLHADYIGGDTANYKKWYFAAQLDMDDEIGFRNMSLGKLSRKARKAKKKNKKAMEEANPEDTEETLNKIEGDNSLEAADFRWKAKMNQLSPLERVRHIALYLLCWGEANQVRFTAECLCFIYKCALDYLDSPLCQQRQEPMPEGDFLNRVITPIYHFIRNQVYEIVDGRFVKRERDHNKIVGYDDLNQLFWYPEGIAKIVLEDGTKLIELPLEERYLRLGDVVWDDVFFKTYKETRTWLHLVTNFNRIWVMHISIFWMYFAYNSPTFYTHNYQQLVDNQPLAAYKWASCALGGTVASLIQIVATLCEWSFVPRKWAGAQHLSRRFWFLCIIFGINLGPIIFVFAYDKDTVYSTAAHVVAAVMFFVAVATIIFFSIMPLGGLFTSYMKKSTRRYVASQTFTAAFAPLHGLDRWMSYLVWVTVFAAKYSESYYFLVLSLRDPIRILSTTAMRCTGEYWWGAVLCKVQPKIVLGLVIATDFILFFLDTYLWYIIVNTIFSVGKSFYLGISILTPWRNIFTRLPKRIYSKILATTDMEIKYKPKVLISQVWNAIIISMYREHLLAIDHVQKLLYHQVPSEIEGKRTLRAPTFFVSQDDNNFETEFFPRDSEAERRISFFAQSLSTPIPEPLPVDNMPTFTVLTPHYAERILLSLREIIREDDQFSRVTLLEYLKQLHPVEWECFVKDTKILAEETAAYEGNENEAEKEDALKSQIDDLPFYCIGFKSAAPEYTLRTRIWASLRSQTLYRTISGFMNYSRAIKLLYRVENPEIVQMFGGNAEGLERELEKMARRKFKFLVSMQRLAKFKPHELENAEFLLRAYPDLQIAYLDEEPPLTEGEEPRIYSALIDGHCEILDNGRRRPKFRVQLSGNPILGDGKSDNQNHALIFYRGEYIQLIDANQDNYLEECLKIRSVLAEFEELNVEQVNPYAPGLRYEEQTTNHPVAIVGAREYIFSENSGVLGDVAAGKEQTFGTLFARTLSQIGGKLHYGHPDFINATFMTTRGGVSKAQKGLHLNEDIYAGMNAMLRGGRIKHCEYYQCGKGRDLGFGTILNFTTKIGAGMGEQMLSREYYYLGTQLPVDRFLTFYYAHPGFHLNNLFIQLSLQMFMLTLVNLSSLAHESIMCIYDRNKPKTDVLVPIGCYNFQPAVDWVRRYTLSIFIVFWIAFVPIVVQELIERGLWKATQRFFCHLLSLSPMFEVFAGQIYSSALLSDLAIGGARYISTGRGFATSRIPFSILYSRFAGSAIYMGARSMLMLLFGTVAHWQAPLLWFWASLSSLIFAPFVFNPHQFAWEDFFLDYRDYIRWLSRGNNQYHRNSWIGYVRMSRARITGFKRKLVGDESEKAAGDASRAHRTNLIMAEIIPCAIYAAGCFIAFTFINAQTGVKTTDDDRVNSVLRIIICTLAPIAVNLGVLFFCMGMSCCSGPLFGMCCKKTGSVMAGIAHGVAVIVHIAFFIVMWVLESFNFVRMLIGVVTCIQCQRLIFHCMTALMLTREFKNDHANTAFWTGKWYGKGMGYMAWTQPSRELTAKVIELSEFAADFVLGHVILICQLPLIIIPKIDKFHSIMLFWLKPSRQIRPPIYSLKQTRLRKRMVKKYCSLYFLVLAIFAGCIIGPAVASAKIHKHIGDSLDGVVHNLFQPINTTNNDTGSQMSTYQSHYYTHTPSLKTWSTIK
1,3-beta-D glucan synthase from X2180-1A, sequence (P06780 1-206, further chain): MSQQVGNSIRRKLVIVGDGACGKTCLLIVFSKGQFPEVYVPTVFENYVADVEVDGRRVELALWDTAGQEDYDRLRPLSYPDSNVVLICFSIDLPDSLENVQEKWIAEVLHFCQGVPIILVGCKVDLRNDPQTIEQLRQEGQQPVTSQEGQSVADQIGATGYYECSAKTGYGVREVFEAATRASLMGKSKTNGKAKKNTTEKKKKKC

dihydropapulacandin [L-687,781] gave an MIC (S. cerevisiae MY2145) of 5.5 µg/mL, an MIC (S. cerevisiae X2180-1A) of 5.5 µg/mL and an MIC [1] of 15 µg/mL. The IC50 [2] was 5.08 µg/mL, the IC50 [3] was 11.5 µg/mL and the IC50 [4] was 11.1 µg/mL. For the same substance, the “Secondary Screen Zone size (mm)” value (S. cerevisiae R560-1C) was 14-16 mm and the “Secondary Screen Zone size (mm)” value (S. cerevisiae W303-1A) was 15-18 mm.
